Values of other authors as cited in US20110212461A1, “PREDICTION OF CARDIOTOXICITY” (priority 2010, published 2011).

Details: assessment positive or negative; marketed/external kinase inhibitors; from public literature and internal data

Compound | Cardiotoxicity
COc1cc2ncnc(Nc3ccc(F)c(Cl)c3)c2cc1OCCCN1CCOCC1 [Iressa] | Negative
CNC(=O)c1cc(Oc2ccc(NC(=O)Nc3ccc(Cl)c(C(F)(F)F)c3)cc2)ccn1 [Nexavar, sorafenib] | Positive
Cc1cn(-c2cc(NC(=O)c3ccc(C)c(Nc4nccc(-c5cccnc5)n4)c3)cc(C(F)(F)F)c2)cn1 [Nilotinib] | Positive
Cc1nc(Nc2ncc(C(=O)Nc3c(C)cccc3Cl)s2)cc(N2CCN(CCO)CC2)n1 [Sprycel, dasatinib] | Positive
CCN(CC)CCNC(=O)c1c(C)[nH]c(/C=C2\C(=O)Nc3ccc(F)cc32)c1C [Sutent, sunitinib] | Positive
C#Cc1cccc(Nc2ncnc3cc(OCCOC)c(OCCOC)cc23)c1 [Tarceva] | Negative
CS(=O)(=O)CCNCc1ccc(-c2ccc3ncnc(Nc4ccc(OCc5cccc(F)c5)c(Cl)c4)c3c2)o1 [Tykerb] | Negative
COc1cc2c(Nc3ccc(Br)cc3F)ncnc2cc1OCC1CCN(C)CC1 [Zactima] | Positive
